Target: T1, human cloned CHRM3 receptor (M3_CHO cells) (Homo sapiens, UniProt P20309)
T1 construct: expressed in transfected cells; host or cells: CHO-K1
Assay: CHRM3 Ca++ Flux Assay (agonist mode, FDSS 7000EX)
Type: cell-based
Conditions: for Emax: Percent Activity measured to EC100 of Carbachol, read-out: M3 FDSS PA; for EC50: agonist mode, geometric mean if tested more than once, read-out: M3 FDSS EC50
Method in brief: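 Agonist responses are measured as calcium mobilization in CHO-K1 cells expressing human M3 or M5, tested over an 11-point dose range in triplicate. Percent activity is normalised to carbachol at EC100.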

T1 sequence (P20309 whole entry): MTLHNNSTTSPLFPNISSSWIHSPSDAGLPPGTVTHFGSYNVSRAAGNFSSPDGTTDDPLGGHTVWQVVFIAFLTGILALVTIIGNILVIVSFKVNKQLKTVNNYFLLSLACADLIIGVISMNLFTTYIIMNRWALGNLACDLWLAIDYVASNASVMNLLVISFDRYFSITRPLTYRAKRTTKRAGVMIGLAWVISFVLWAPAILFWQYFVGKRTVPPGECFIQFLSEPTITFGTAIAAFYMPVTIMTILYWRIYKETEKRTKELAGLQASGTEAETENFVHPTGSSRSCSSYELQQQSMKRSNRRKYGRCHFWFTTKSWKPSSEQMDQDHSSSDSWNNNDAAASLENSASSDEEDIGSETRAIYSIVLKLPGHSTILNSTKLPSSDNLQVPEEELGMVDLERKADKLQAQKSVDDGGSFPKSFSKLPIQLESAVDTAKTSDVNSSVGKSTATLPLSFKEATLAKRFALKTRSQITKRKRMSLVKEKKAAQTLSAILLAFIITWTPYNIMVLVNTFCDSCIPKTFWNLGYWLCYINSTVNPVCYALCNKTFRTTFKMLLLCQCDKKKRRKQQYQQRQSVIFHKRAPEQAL

SMILES | Emax | EC50
c1ccc(C2CCN([C@@H]3CCC4(C3)CN(c3cncnc3)C4)CC2)c(OCC2CCOCC2)c1 [Example 1M, (R)-2-(pyrimidin-5-yl)-6-(4-(2-((tetrahydro-2H-pyran-4-yl)methoxy)phenyl)piperidin-1-yl)-2-azaspiro[3.4]octane] | 0% | > 25 µM
c1ccc(C2CCN([C@@H]3CCC4(C3)CN(c3cncnc3)C4)CC2)c(OCC2COC2)c1 [Example 1N, (R)-6-(4-(2-(oxetan-3-ylmethoxy)phenyl)piperidin-1-yl)-2-(pyrimidin-5-yl)-2-azaspiro[3.4]octane] | 0% | > 25 µM
c1ccc(C2CCN([C@@H]3CCC4(C3)CN(c3cncnc3)C4)CC2)c(OC2CC3(COC3)C2)c1 [Example 1O, (R)-6-(4-(2-((2-oxaspiro[3.3]heptan-6-yl)oxy)phenyl)piperidin-1-yl)-2-(pyrimidin-5-yl)-2-azaspiro[3.4]octane] | 0% | > 25 µM
c1ccc(C2CCN([C@@H]3CCC4(C3)CN(c3cncnc3)C4)CC2)c(O[C@@H]2CCOC2)c1 [Example 1P, (R)-2-(pyrimidin-5-yl)-6-(4-(2-(((R)-tetrahydrofuran-3-yl)oxy)phenyl)piperidin-1-yl)-2-azaspiro[3.4]octane] | 0% | > 25 µM
CC(C)(O)COc1ccccc1C1CCN([C@@H]2CCC3(C2)CN(c2nnco2)C3)CC1 [Example 2A, (R)-1-(2-(1-(2-(1,3,4-oxadiazol-2-yl)-2-azaspiro[3.4]octan-6-yl)piperidin-4-yl)phenoxy)-2-methylpropan-2-ol] | 0% | > 25 µM
c1ccc(C2CCN([C@@H]3CCC4(C3)CN(c3nnco3)C4)CC2)c(O[C@@H]2CCOC2)c1 [Example 2B, 2-((R)-6-(4-(2-(((R)-tetrahydrofuran-3-yl)oxy)phenyl)piperidin-1-yl)-2-azaspiro[3.4]octan-2-yl)-1,3,4-oxadiazole] | 0% | > 25 µM
COCCOc1ccccc1C1CCN([C@@H]2CCC3(C2)CN(c2nnco2)C3)CC1 [Example 2C] | 0% | > 25 µM
FC1(COc2ccccc2C2CCN([C@@H]3CCC4(C3)CN(c3nnco3)C4)CC2)CCOCC1 [Example 2D, (R)-2-(6-(4-(2-((4-fluorotetrahydro-2H-pyran-4-yl)methoxy)phenyl)piperidin-1-yl)-2-azaspiro[3.4]octan-2-yl)-1,3,4-oxadiazole] | 0% | > 25 µM
CC1(COc2ccccc2C2CCN([C@@H]3CCC4(C3)CN(c3nnco3)C4)CC2)CCOCC1 [Example 2E, (R)-2-(6-(4-(2-((4-methyltetrahydro-2H-pyran-4-yl)methoxy)phenyl)piperidin-1-yl)-2-azaspiro[3.4]octan-2-yl)-1,3,4-oxadiazole] | 0% | > 25 µM
c1ccc(C2CCN([C@@H]3CCC4(C3)CN(c3nnco3)C4)CC2)c(OC2CCOCC2)c1 [Example 2F, (R)-2-(6-(4-(2-((tetrahydro-2H-pyran-4-yl)oxy)phenyl)piperidin-1-yl)-2-azaspiro[3.4]octan-2-yl)-1,3,4-oxadiazole] | 0% | > 25 µM
c1ccc(C2CCN([C@@H]3CCC4(C3)CN(c3nnco3)C4)CC2)c(OCC2CCOCC2)c1 [Example 2G, (R)-2-(6-(4-(2-((tetrahydro-2H-pyran-4-yl)methoxy)phenyl)piperidin-1-yl)-2-azaspiro[3.4]octan-2-yl)-1,3,4-oxadiazole] | 0% | > 25 µM
c1ccc(C2CCN([C@@H]3CCC4(C3)CN(c3nnco3)C4)CC2)c(C2CCOCC2)c1 [Example 2H, (R)-2-(6-(4-(2-(tetrahydro-2H-pyran-4-yl)phenyl)piperidin-1-yl)-2-azaspiro[3.4]octan-2-yl)-1,3,4-oxadiazole] | 0% | > 25 µM
Fc1ccc(C2CCOCC2)c(C2CCN([C@@H]3CCC4(C3)CN(c3nnco3)C4)CC2)c1 [Example 2I, (R)-2-(6-(4-(5-fluoro-2-(tetrahydro-2H-pyran-4-yl)phenyl)piperidin-1-yl)-2-azaspiro[3.4]octan-2-yl)-1,3,4-oxadiazole] | 0% | > 25 µM
c1ccc(C2CCOC2)c(C2CCN([C@@H]3CCC4(C3)CN(c3nnco3)C4)CC2)c1 (stereo partly drawn) [Example 2K, 2-((6R)-6-(4-(2-(tetrahydrofuran-3-yl)phenyl)piperidin-1-yl)-2-azaspiro[3.4]octan-2-yl)-1,3,4-oxadiazole] | 0% | > 25 µM
c1ccc(C2CCN([C@@H]3CCC4(C3)CN(c3nnco3)C4)CC2)c(CC2CCOCC2)c1 [Example 2L, (R)-2-(6-(4-(2-((tetrahydro-2H-pyran-4-yl)methyl)phenyl)piperidin-1-yl)-2-azaspiro[3.4]octan-2-yl)-1,3,4-oxadiazole] | 0% | > 25 µM
c1ccc(C2CCN([C@@H]3CCC4(C3)CN(c3nnco3)C4)CC2)c(-c2ncco2)c1 [Example 2M, (R)-2-(6-(4-(2-(oxazol-2-yl)phenyl)piperidin-1-yl)-2-azaspiro[3.4]octan-2-yl)-1,3,4-oxadiazole] | 0% | > 25 µM
c1ccc(C2CCN([C@@H]3CCC4(C3)CN(c3nncs3)C4)CC2)c(OC2COC2)c1 [Example 3A, (R)-2-(6-(4-(2-(oxetan-3-yloxy)phenyl)piperidin-1-yl)-2-azaspiro[3.4]octan-2-yl)-1,3,4-thiadiazole] | 0% | > 25 µM
c1ccc(C2CCN([C@@H]3CCC4(C3)CN(c3nncs3)C4)CC2)c(OC[C@H]2COCCO2)c1 [Example 3B, 2-((R)-6-(4-(2-(((R)-1,4-dioxan-2-yl)methoxy)phenyl)piperidin-1-yl)-2-azaspiro[3.4]octan-2-yl)-1,3,4-thiadiazole] | 0% | > 25 µM

More lines, now with the values ahead:

Emax | EC50 | SMILES
0% | > 25 µM | Fc1ccc(C2CCOC2)c(C2CCN([C@@H]3CCC4(C3)CN(c3nnco3)C4)CC2)c1 (mixture of isomers) [Example 2J, 2-((6R)-6-(4-(5-fluoro-2-(tetrahydrofuran-3-yl)phenyl)piperidin-1-yl)-2-azaspiro[3.4]octan-2-yl)-1,3,4-oxadiazole]
0% | > 25 µM | O=C(C1COC1)N1CC2(CC[C@H](N3CCC(c4ccccc4OC(F)(F)F)CC3)C2)C1 (single isomer, unassigned) [Example 8G]
0% | > 25 µM | O=C(N1CC2(CC[C@H](N3CCC(c4ccccc4C4CCOCC4)CC3)C2)C1)C1(F)CC1 (single isomer, unassigned) [Example 9M]
0% | > 25 µM | c1ccc(C2CCN([C@H]3CCC4(C3)CN(c3nnco3)C4)CC2)c(C2CCOCC2)c1 (single isomer, unassigned) [Example 10T]
0% | > 25 µM | c1ccc(C2CCN([C@@H]3CCC4(C3)CN(c3nnco3)C4)CC2)c(OC2CC3(COC3)C2)c1 [Example 1A, (R)-2-(6-(4-(2-((2-oxaspiro[3.3]heptan-6-yl)oxy)phenyl)piperidin-1-yl)-2-azaspiro[3.4]octan-2-yl)-1,3,4-oxadiazole]
0% | > 25 µM | c1ccc(C2CCN([C@@H]3CCC4(C3)CN(c3nnco3)C4)CC2)c(OC2COC2)c1 [Example 1D, (R)-2-(6-(4-(2-(oxetan-3-yloxy)phenyl)piperidin-1-yl)-2-azaspiro[3.4]octan-2-yl)-1,3,4-oxadiazole]
0% | > 25 µM | c1ccc(C2CCN([C@@H]3CCC4(C3)CN(c3nnco3)C4)CC2)c(OC[C@@H]2COCCO2)c1 [Example 1E, 2-((R)-6-(4-(2-(((S)-1,4-dioxan-2-yl)methoxy)phenyl)piperidin-1-yl)-2-azaspiro[3.4]octan-2-yl)-1,3,4-oxadiazole]
0% | > 25 µM | CC(C)(O)CCOc1ccccc1C1CCN([C@@H]2CCC3(C2)CN(c2nnco2)C3)CC1 [Example 1F]
0% | > 25 µM | c1ccc(C2CCN([C@@H]3CCC4(C3)CN(c3nncs3)C4)CC2)c(OCC2COC2)c1 [Example 1G, (R)-2-(6-(4-(2-(oxetan-3-ylmethoxy)phenyl)piperidin-1-yl)-2-azaspiro[3.4]octan-2-yl)-1,3,4-thiadiazole]
0% | > 25 µM | FC1(COc2ccccc2C2CCN([C@@H]3CCC4(C3)CN(c3nncs3)C4)CC2)COC1 [Example 1H, (R)-2-(6-(4-(2-((3-fluorooxetan-3-yl)methoxy)phenyl)piperidin-1-yl)-2-azaspiro[3.4]octan-2-yl)-1,3,4-thiadiazole]
0% | > 25 µM | c1ccc(C2CCN([C@@H]3CCC4(C3)CN(c3nncs3)C4)CC2)c(OCC2CCOCC2)c1 [Example 1I, (R)-2-(6-(4-(2-((tetrahydro-2H-pyran-4-yl)methoxy)phenyl)piperidin-1-yl)-2-azaspiro[3.4]octan-2-yl)-1,3,4-thiadiazole]
0% | > 25 µM | FC1(COc2ccccc2C2CCN([C@@H]3CCC4(C3)CN(c3nncs3)C4)CC2)CCOCC1 [Example 1J, (R)-2-(6-(4-(2-((4-fluorotetrahydro-2H-pyran-4-yl)methoxy)phenyl)piperidin-1-yl)-2-azaspiro[3.4]octan-2-yl)-1,3,4-thiadiazole]
0% | > 25 µM | c1ccc(C2CCN([C@@H]3CCC4(C3)CN(c3cncnc3)C4)CC2)c(OC2COC2)c1 [Example 1K, (R)-6-(4-(2-(oxetan-3-yloxy)phenyl)piperidin-1-yl)-2-(pyrimidin-5-yl)-2-azaspiro[3.4]octane]
0% | > 25 µM | c1ccc(C2CCN([C@@H]3CCC4(C3)CN(c3cncnc3)C4)CC2)c(OC2CCOCC2)c1 [Example 1L, (R)-2-(pyrimidin-5-yl)-6-(4-(2-((tetrahydro-2H-pyran-4-yl)oxy)phenyl)piperidin-1-yl)-2-azaspiro[3.4]octane]
